Source: ChEMBL document CHEMBL1201862, “PubChem BioAssay data set” (2004)
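Test compounds were applied to cells in 96-well plates for 48 hours at 5 doses. At the GI50, growth is halved.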 The source made the active and inactive calls. No stated cut-off is given here; in the data, active = GI50 up to about 1.1 µM and inactive = higher.

How the values were obtained:
Assay in all cases: NCI-60 cell line screen, 48 h
SK-MEL-28 = system: SK-MEL-28
NCI-H23 = system: NCI-H23
HOP-92 = system: HOP-92
SW-620 = system: SW-620
SK-MEL-5 = system: SK-MEL-5
CCRF-CEM = system: CCRF-CEM
SN12C = system: SN12C
KM12 = system: KM12
COLO 205 = system: COLO 205
NCI-H460 = system: NCI-H460
SNB-19 = system: SNB-19
MDA-N = system: MDA-N
NCI-H522 = system: NCI-H522
A498 = system: A498
SK-MEL-2 = system: SK-MEL-2
UACC-257 = system: UACC-257
T47D = system: T47D
K562 = system: K562
786-0 = system: 786-0
OVCAR-3 = system: OVCAR-3
HCT-15 = system: HCT-15
Hs-578T = system: Hs-578T
NCI-H226 = system: NCI-H226
EKVX = system: EKVX
DU-145 = system: DU-145
RXF 393 = system: RXF 393
CAKI-1 = system: CAKI-1
TK-10 = system: TK-10
OVCAR-4 = system: OVCAR-4
UACC-62 = system: UACC-62
MDA-MB-231 = system: MDA-MB-231
OVCAR-8 = system: OVCAR-8
SNB-75 = system: SNB-75
A549 = system: A549
Malme-3M = system: Malme-3M
HL-60 = system: HL-60
HT-29 = system: HT-29
LOX IMVI = system: LOX IMVI
NCI/ADR-RES = system: NCI/ADR-RES
MDA-MB-435 = system: MDA-MB-435
UO-31 = system: UO-31
IGROV-1 = system: IGROV-1
HCT-116 = system: HCT-116
U-251 = system: U-251
ACHN = system: ACHN
SK-OV-3 = system: SK-OV-3
BT-549 = system: BT-549
PC-3 = system: PC-3
M14 = system: M14
SF-295 = system: SF-295
SF-539 = system: SF-539
RPMI-8226 = system: RPMI-8226
OVCAR-5 = system: OVCAR-5
MCF7 = system: MCF7
SF-268 = system: SF-268
SR = system: SR
MOLT-4 = system: MOLT-4
HOP-62 = system: HOP-62
HCC 2998 = system: HCC 2998

Structure (SMILES): CO[P@]1(=O)O[C@@H](c2ccccc2)[C@H](O)[C@]1(O)c1ccccc1
- GI50 (SK-MEL-28): > 100 µM (inactive)
- GI50 (NCI-H23): > 100 µM (inactive)
- GI50 (HOP-92): > 100 µM (inactive)
- GI50 (SW-620): > 100 µM (inactive)
- GI50 (SK-MEL-5): > 100 µM (inactive)
- GI50 (CCRF-CEM): > 100 µM (inactive)
- GI50 (SN12C): > 100 µM (inactive)
- GI50 (KM12): > 100 µM (inactive)
- GI50 (COLO 205): > 100 µM (inactive)
- GI50 (NCI-H460): > 100 µM (inactive)
- GI50 (SNB-19): > 100 µM (inactive)
- GI50 (MDA-N): > 100 µM (inactive)
- GI50 (NCI-H522): > 100 µM (inactive)
- GI50 (A498): > 100 µM (inactive)
- GI50 (SK-MEL-2): > 100 µM (inactive)
- GI50 (UACC-257): > 100 µM (inactive)
- GI50 (T47D): > 100 µM (inactive)
- GI50 (K562): > 100 µM (inactive)
- GI50 (786-0): > 100 µM (inactive)
- GI50 (OVCAR-3): > 100 µM (inactive)
- GI50 (HCT-15): > 100 µM
- GI50 (Hs-578T): > 100 µM (inactive)
- GI50 (NCI-H226): > 100 µM (inactive)
- GI50 (EKVX): > 100 µM (inactive)
- GI50 (DU-145): > 100 µM (inactive)
- GI50 (RXF 393): > 100 µM (inactive)
- GI50 (CAKI-1): > 100 µM (inactive)
- GI50 (TK-10): > 100 µM (inactive)
- GI50 (OVCAR-4): > 100 µM (inactive)
- GI50 (UACC-62): > 100 µM (inactive)
- GI50 (MDA-MB-231): > 100 µM (inactive)
- GI50 (OVCAR-8): > 100 µM (inactive)
- GI50 (SNB-75): > 100 µM (inactive)
- GI50 (A549): > 100 µM (inactive)
- GI50 (Malme-3M): > 100 µM (inactive)
- GI50 (HL-60): > 100 µM (inactive)
- GI50 (HT-29): > 100 µM (inactive)
- GI50 (LOX IMVI): > 100 µM (inactive)
- GI50 (NCI/ADR-RES): > 100 µM (inactive)
- GI50 (MDA-MB-435): > 100 µM (inactive)
- GI50 (UO-31): > 100 µM (inactive)
- GI50 (IGROV-1): > 100 µM (inactive)
- GI50 (HCT-116): > 100 µM (inactive)
- GI50 (U-251): > 100 µM (inactive)
- GI50 (ACHN): > 100 µM (inactive)
- GI50 (SK-OV-3): > 100 µM (inactive)
- GI50 (BT-549): > 100 µM (inactive)
- GI50 (PC-3): > 100 µM (inactive)
- GI50 (M14): > 100 µM (inactive)
- GI50 (SF-295): > 100 µM (inactive)
- GI50 (SF-539): > 100 µM (inactive)
- GI50 (RPMI-8226): > 100 µM (inactive)
- GI50 (OVCAR-5): > 100 µM (inactive)
- GI50 (MCF7): > 100 µM (inactive)
- GI50 (SF-268): > 100 µM (inactive)

Structure (SMILES): O=c1[nH]nc(-c2ccccc2)n1/N=C/c1ccco1
- GI50 (SK-MEL-28): > 100 µM (inactive)
- GI50 (NCI-H23): > 100 µM (inactive)
- GI50 (HOP-92): > 100 µM (inactive)
- GI50 (SW-620): > 100 µM (inactive)
- GI50 (SK-MEL-5): > 100 µM (inactive)
- GI50 (CCRF-CEM): > 100 µM (inactive)
- GI50 (SN12C): 29.2 µM (inactive)
- GI50 (KM12): > 100 µM (inactive)
- GI50 (COLO 205): > 100 µM (inactive)
- GI50 (NCI-H460): > 100 µM (inactive)
- GI50 (SNB-19): > 100 µM (inactive)
- GI50 (MDA-N): > 100 µM (inactive)
- GI50 (NCI-H522): > 100 µM (inactive)
- GI50 (A498): > 100 µM (inactive)
- GI50 (SK-MEL-2): > 100 µM (inactive)
- GI50 (UACC-257): > 100 µM (inactive)
- GI50 (T47D): > 100 µM (inactive)
- GI50 (786-0): > 100 µM (inactive)
- GI50 (OVCAR-3): > 100 µM (inactive)
- GI50 (HCT-15): > 100 µM
- GI50 (Hs-578T): > 100 µM (inactive)
- GI50 (EKVX): > 100 µM (inactive)
- GI50 (DU-145): > 100 µM (inactive)
- GI50 (SR): > 100 µM (inactive)
- GI50 (RXF 393): > 100 µM (inactive)
- GI50 (CAKI-1): > 100 µM (inactive)
- GI50 (TK-10): > 100 µM (inactive)
- GI50 (OVCAR-4): 30.1 µM (inactive)
- GI50 (UACC-62): 83.2 µM (inactive)
- GI50 (OVCAR-8): > 100 µM (inactive)
- GI50 (SNB-75): > 100 µM (inactive)
- GI50 (A549): > 100 µM (inactive)
- GI50 (Malme-3M): > 100 µM (inactive)
- GI50 (HL-60): > 100 µM (inactive)
- GI50 (HT-29): > 100 µM (inactive)
- GI50 (LOX IMVI): > 100 µM (inactive)
- GI50 (NCI/ADR-RES): > 100 µM (inactive)
- GI50 (MDA-MB-435): > 100 µM (inactive)
- GI50 (UO-31): > 100 µM (inactive)
- GI50 (IGROV-1): > 100 µM (inactive)
- GI50 (HCT-116): > 100 µM (inactive)
- GI50 (U-251): > 100 µM (inactive)
- GI50 (ACHN): > 100 µM (inactive)
- GI50 (SK-OV-3): > 100 µM (inactive)
- GI50 (BT-549): 32.6 µM (inactive)
- GI50 (PC-3): > 100 µM (inactive)
- GI50 (M14): > 100 µM (inactive)
- GI50 (SF-295): > 100 µM (inactive)
- GI50 (SF-539): > 100 µM (inactive)
- GI50 (MOLT-4): > 100 µM (inactive)
- GI50 (OVCAR-5): > 100 µM (inactive)
- GI50 (HOP-62): > 100 µM (inactive)
- GI50 (MCF7): 0.0719 µM (active)
- GI50 (SF-268): > 100 µM (inactive)

Structure (SMILES): CCNC(=O)Nc1cccc(NC(=O)NCC)n1
- GI50 (SK-MEL-28): > 100 µM (inactive)
- GI50 (NCI-H23): > 100 µM (inactive)
- GI50 (HOP-92): 50.4 µM (inactive)
- GI50 (SW-620): > 100 µM (inactive)
- GI50 (SK-MEL-5): > 100 µM (inactive)
- GI50 (CCRF-CEM): > 100 µM (inactive)
- GI50 (SN12C): > 100 µM (inactive)
- GI50 (KM12): > 100 µM (inactive)
- GI50 (COLO 205): > 100 µM (inactive)
- GI50 (NCI-H460): > 100 µM (inactive)
- GI50 (SNB-19): > 100 µM (inactive)
- GI50 (MDA-N): > 100 µM (inactive)
- GI50 (NCI-H522): > 100 µM (inactive)
- GI50 (A498): 60.1 µM (inactive)
- GI50 (UACC-257): 92.9 µM (inactive)
- GI50 (T47D): > 100 µM (inactive)
- GI50 (K562): > 100 µM (inactive)
- GI50 (786-0): > 100 µM (inactive)
- GI50 (OVCAR-3): > 100 µM (inactive)
- GI50 (Hs-578T): > 100 µM (inactive)
- GI50 (NCI-H226): > 100 µM (inactive)
- GI50 (EKVX): 35.8 µM (inactive)
- GI50 (DU-145): > 100 µM (inactive)
- GI50 (SR): 51.4 µM (inactive)
- GI50 (RXF 393): > 100 µM (inactive)
- GI50 (CAKI-1): 75.2 µM (inactive)
- GI50 (TK-10): 50.2 µM (inactive)
- GI50 (OVCAR-4): > 100 µM (inactive)
- GI50 (UACC-62): 36 µM (inactive)
- GI50 (MDA-MB-231): > 100 µM (inactive)
- GI50 (OVCAR-8): > 100 µM (inactive)
- GI50 (SNB-75): 24.5 µM (inactive)
- GI50 (A549): > 100 µM (inactive)
- GI50 (Malme-3M): > 100 µM (inactive)
- GI50 (HCC 2998): 62.1 µM (inactive)
- GI50 (HL-60): 34.1 µM (inactive)
- GI50 (HT-29): 76.4 µM (inactive)
- GI50 (MDA-MB-435): > 100 µM (inactive)
- GI50 (UO-31): 43.8 µM (inactive)
- GI50 (IGROV-1): > 100 µM (inactive)
- GI50 (HCT-116): > 100 µM (inactive)
- GI50 (U-251): > 100 µM (inactive)
- GI50 (ACHN): > 100 µM (inactive)
- GI50 (SK-OV-3): > 100 µM (inactive)
- GI50 (BT-549): > 100 µM (inactive)
- GI50 (PC-3): 59.3 µM (inactive)
- GI50 (M14): > 100 µM (inactive)
- GI50 (SF-295): > 100 µM (inactive)
- GI50 (SF-539): > 100 µM (inactive)
- GI50 (MOLT-4): > 100 µM (inactive)
- GI50 (OVCAR-5): > 100 µM (inactive)
- GI50 (HOP-62): 81.8 µM (inactive)
- GI50 (MCF7): 57.1 µM (inactive)
- GI50 (SF-268): > 100 µM (inactive)
